Experimental data as given in PMC6001238, “Iterative Chemical Engineering of Vancomycin Leads to Novel Vancomycin Analogs With a High in Vitro Therapeutic Index” (Frontiers in Microbiology, 2018).
Converted amounts (≈) assume the structure as drawn.

Assays:
S. aureus VRSA = assay: MIC, broth microdilution, vancomycin-resistant S. aureus (VRSA); format: cell-based, Staphylococcus aureus; details: for MIC: Staphylococcus aureus VRSA, read-out: MIC; for MIC-fold improvement vs. vancomycin: VRSA, ratio of MIC of vancomycin and MIC of analogue
Experimental: (§1) The minimum inhibitory concentration (MIC) was determined using the broth microdilution method according to the antimicrobial susceptibility testing standards of the clinical and laboratory standards institute ([Clinical and Laboratory Standards Institute [CLSI], 2012]). Ultrapure water and non-inoculated broth were used as controls. In one case, a final concentration of 10 μM vancomycin was included with the vancomycin analog or control antibiotic.

[1] = tested on: human T-lymphocyte (CEM) cells; assay: Cytostatic activity, CEM cell proliferation; format: cell-based; details: mean ± SD of three experiments; highest concentration tested 250 µM; 3 days; read-out: Toxicity (IC50) CEM
Experimental: (§2) Murine leukemia (L1210), human T-lymphocyte (CEM) and the human cervix carcinoma (HeLa) cell line were suspended at 300,000–500,000 cells/mL of culture medium, and 100 μL of a cell suspension was added to 100 μL of an appropriate dilution of the test compounds in wells of 96-well microtiter plates. After incubation at 37°C for 2 (L1210), 3 (CEM), or 4 (HeLa) days, the cell number was determined using a Coulter counter. The IC50 was defined per cell type as the compound concentration required to inhibit cell proliferation by 50% compared to the negative control ([Glowacka et al., 2017]).

MRSA KS89 = assay: MIC, broth microdilution, MRSA KS89; format: cell-based, Staphylococcus aureus; details: for MIC-fold improvement vs. vancomycin: MRSA KS8, ratio of MIC of vancomycin and MIC of analogue; for MIC: Staphylococcus aureus MRSA KS8, read-out: MIC
Experimental: as §1

[2] = tested on: S. aureus VSSA (ATCC 6538); assay: MIC, broth microdilution, vancomycin-sensitive S. aureus (VSSA/MSSA, ATCC 6538); format: cell-based, Staphylococcus aureus; details: for MIC: Staphylococcus aureus VSSA, read-out: MIC; for MIC-fold improvement vs. vancomycin: VSSA, ratio of MIC of vancomycin and MIC of analogue
Experimental: as §1

E. faecalis VRE 37 = assay: MIC, broth microdilution, vancomycin-resistant E. faecalis VRE 37 (VanA); format: cell-based, Enterococcus faecalis; details: for MIC: Enterococcus faecalis VRE 37 (vancomycin-resistant), read-out: MIC; for MIC-fold improvement vs. vancomycin: VRE 37, ratio of MIC of vancomycin and MIC of analogue
Experimental: as §1

[3] = tested on: L1210, CEM and HeLa cell lines; assay: Cytostatic activity, average or summary over L1210, CEM and HeLa; format: cell-based; details: average of L1210, CEM and HeLa; read-out: Toxicity (IC50) Average
Experimental: as §2

[4] = tested on: human cervix carcinoma (HeLa) cells; assay: Cytostatic activity, HeLa cell proliferation; format: cell-based; details: mean ± SD of three experiments; highest concentration tested 250 µM; 4 days; read-out: Toxicity (IC50) HeLa
Experimental: as §2

[5] = tested on: Murine leukemia (L1210) cells; assay: Cytostatic activity, L1210 cell proliferation; format: cell-based; details: mean ± SD of three experiments; highest concentration tested 250 µM; 2 days; read-out: Toxicity (IC50) L1210
Experimental: as §2

S. aureus VISA/HIP5827 = assay: MIC, broth microdilution, vancomycin-intermediate S. aureus VISA HIP5827; format: cell-based, Staphylococcus aureus; details: for MIC: Staphylococcus aureus VISA/HIP5827, read-out: MIC; for MIC-fold improvement vs. vancomycin: VISA/HIP5827, ratio of MIC of vancomycin and MIC of analogue
Experimental: as §1

E. faecalis VSE 1 = assay: MIC, broth microdilution, vancomycin-sensitive E. faecalis (VSE 1); format: cell-based, Enterococcus faecalis; details: for MIC: Enterococcus faecalis VSE 1 (vancomycin-sensitive), read-out: MIC; for MIC-fold improvement vs. vancomycin: VSE 1, ratio of MIC of vancomycin and MIC of analogue
Experimental: as §1

E. faecalis VRE 6 = assay: MIC, broth microdilution, vancomycin-resistant E. faecalis VRE 6 (VanA); format: cell-based, Enterococcus faecalis; details: for MIC: Enterococcus faecalis VRE 6 (vancomycin-resistant), read-out: MIC; for MIC-fold improvement vs. vancomycin: VRE 6, ratio of MIC of vancomycin and MIC of analogue
Experimental: as §1

E. faecalis VRE 53 = assay: MIC, broth microdilution, vancomycin-resistant E. faecalis VRE 53 (VanA); format: cell-based, Enterococcus faecalis; details: for MIC: Enterococcus faecalis VRE 53 (vancomycin-resistant), read-out: MIC; for MIC-fold improvement vs. vancomycin: VRE 53, ratio of MIC of vancomycin and MIC of analogue
Experimental: as §1

E. faecalis VRE 29 = assay: MIC, broth microdilution, vancomycin-resistant E. faecalis VRE 29 (VanA); format: cell-based, Enterococcus faecalis; details: for MIC: Enterococcus faecalis VRE 29 (vancomycin-resistant), read-out: MIC; for MIC-fold improvement vs. vancomycin: VRE 29, ratio of MIC of vancomycin and MIC of analogue
Experimental: as §1

MRSA KS1 = assay: MIC, broth microdilution, MRSA KS1; format: cell-based, Staphylococcus aureus
Experimental: as §1

MRSA KS6 = assay: MIC, broth microdilution, MRSA KS6; format: cell-based, Staphylococcus aureus
Experimental: as §1

MRSA KS2 = assay: MIC, broth microdilution, MRSA KS2; format: cell-based, Staphylococcus aureus
Experimental: as §1

Compound	MIC (S. aureus VRSA)	MIC-fold improvement vs. vancomycin (S. aureus VRSA)	IC50 [1]	MIC-fold improvement vs. vancomycin (MRSA KS89)	MIC [2]	MIC-fold improvement vs. vancomycin [2]	MIC (E. faecalis VRE 37)	IC50 [3]	IC50 [4]	IC50 [5]	MIC (S. aureus VISA/HIP5827)	MIC-fold improvement vs. vancomycin (S. aureus VISA/HIP5827)	MIC (E. faecalis VSE 1)	MIC-fold improvement vs. vancomycin (E. faecalis VSE 1)	MIC (E. faecalis VRE 6)	MIC-fold improvement vs. vancomycin (E. faecalis VRE 6)	MIC (E. faecalis VRE 53)	MIC-fold improvement vs. vancomycin (E. faecalis VRE 53)	MIC (E. faecalis VRE 29)	MIC-fold improvement vs. vancomycin (E. faecalis VRE 29)	further results
CNC(CC(C)C)C(=O)NC1C(=O)NC(CC(N)=O)C(=O)NC2C(=O)NC3C(=O)NC(C(=O)NC(C(=O)NCC(=O)Nc4ccc(C(=O)NCCCN(C)C)cc4)c4cc(O)cc(O)c4-c4cc3ccc4O)C(O)c3ccc(c(Cl)c3)Oc3cc2cc(c3OC2OC(CO)C(O)C(O)C2OC2CC(C)(N)C(O)C(C)O2)Oc2ccc(cc2Cl)C1O (stereo not shown) [Vanc-82]	3.13 µM (≈ 5.35 µg/mL)	32	> 250 µM	1	1.56 µM (≈ 2.67 µg/mL)	0.5	>50 µM	> 250 µM	> 250 µM	> 250 µM	>12.5 µM	<0.5	1.56 µM (≈ 2.67 µg/mL)	1	6.25 µM (≈ 10.7 µg/mL)	32	50 µM (≈ 85.5 µg/mL)	8	>50 µM	<8	MIC (MRSA KS89): 0.78 µM (≈ 1.33 µg/mL); MIC-fold improvement vs. vancomycin (E. faecalis VRE 37): <8
CCCCC[N+](C)(C)CCCNC(=O)c1ccc(NC(=O)CNC(=O)C2NC(=O)C3NC(=O)C(NC(=O)C4NC(=O)C(CC(N)=O)NC(=O)C(NC(=O)C(CC(C)C)NC)C(O)c5ccc(c(Cl)c5)Oc5cc4cc(c5OC4OC(CO)C(O)C(O)C4OC4CC(C)(N)C(O)C(C)O4)Oc4ccc(cc4Cl)C3O)c3ccc(O)c(c3)-c3c(O)cc(O)cc32)cc1 (stereo not shown) [Vanc-80]	1.56 µM	64	> 250 µM	1	0.78 µM	1	50 µM	239 µM	238 µM	230 ± 3 µM	6.25 µM	1	1.56 µM	1	6.25 µM	32	50 µM	8	50 µM	8	MIC (MRSA KS89): 0.78 µM; MIC-fold improvement vs. vancomycin (E. faecalis VRE 37): 8
CN[C@H](CC(C)C)C(=O)N[C@H]1C(=O)N[C@@H](CC(N)=O)C(=O)N[C@H]2C(=O)N[C@H]3C(=O)N[C@H](C(=O)N[C@H](C(=O)NCCNC(=O)/C=C/c4ccc(OC)cc4)c4cc(O)cc(O)c4-c4cc3ccc4O)[C@H](O)c3ccc(c(Cl)c3)Oc3cc2cc(c3O[C@@H]2O[C@H](CO)[C@@H](O)[C@H](O)[C@H]2O[C@H]2C[C@](C)(N)[C@H](O)[C@H](C)O2)Oc2ccc(cc2Cl)[C@H]1O [Vanc-36]			> 250 µM	1	0.39 µM (≈ 0.644 µg/mL)	2	12.5 µM (≈ 20.6 µg/mL)	196 µM	89 ± 18 µM	> 250 µM	0.39 µM (≈ 0.644 µg/mL)	16	0.39 µM (≈ 0.644 µg/mL)	4	1.56 µM (≈ 2.58 µg/mL)	128	50 µM (≈ 82.6 µg/mL)	8	12.5 µM (≈ 20.6 µg/mL)	32	MIC-fold improvement vs. vancomycin (MRSA KS1; MRSA KS1, ratio of MIC of vancomycin and MIC of analogue): 1; MIC (MRSA KS1; Staphylococcus aureus MRSA KS1, read-out: MIC): 0.78 µM (≈ 1.29 µg/mL); MIC-fold improvement vs. vancomycin (MRSA KS6; MRSA KS6, ratio of MIC of vancomycin and MIC of analogue): 2; MIC (MRSA KS6; Staphylococcus aureus MRSA KS6, read-out: MIC): 0.39 µM (≈ 0.644 µg/mL); MIC (MRSA KS89): 0.78 µM (≈ 1.29 µg/mL); MIC-fold improvement vs. vancomycin (MRSA KS2; MRSA KS2, ratio of MIC of vancomycin and MIC of analogue): 2; MIC (MRSA KS2; Staphylococcus aureus MRSA KS2, read-out: MIC): 0.39 µM (≈ 0.644 µg/mL)
CCCC#Cc1ccc(NC(=O)CNC(=O)C2NC(=O)C3NC(=O)C(NC(=O)C4NC(=O)C(CC(N)=O)NC(=O)C(NC(=O)C(CC(C)C)NC)C(O)c5ccc(c(Cl)c5)Oc5cc4cc(c5OC4OC(CO)C(O)C(O)C4OC4CC(C)(N)C(O)C(C)O4)Oc4ccc(cc4Cl)C3O)c3ccc(O)c(c3)-c3c(O)cc(O)cc32)cc1 (stereo not shown) [Vanc-68]	1.56 µM (≈ 2.57 µg/mL)	64	19 ± 1 µM		0.78 µM (≈ 1.29 µg/mL)	1	3.13 µM (≈ 5.16 µg/mL)	39 µM	55 ± 20 µM	42 ± 14 µM	0.39 µM (≈ 0.643 µg/mL)	16	0.78 µM (≈ 1.29 µg/mL)	2	3.13 µM (≈ 5.16 µg/mL)	64	3.13 µM (≈ 5.16 µg/mL)	128	3.13 µM (≈ 5.16 µg/mL)	128	MIC-fold improvement vs. vancomycin (E. faecalis VRE 37): 128
CNC(CC(C)C)C(=O)NC1C(=O)NC(CC(N)=O)C(=O)NC2C(=O)NC3C(=O)NC(C(=O)NC(C(=O)NCC(=O)Nc4ccc(-c5cnnn5C5OC(COC(C)=O)C(OC(C)=O)C(OC(C)=O)C5OC(C)=O)cc4)c4cc(O)cc(O)c4-c4cc3ccc4O)C(O)c3ccc(c(Cl)c3)Oc3cc2cc(c3OC2OC(CO)C(O)C(O)C2OC2CC(C)(N)C(O)C(C)O2)Oc2ccc(cc2Cl)C1O (stereo not shown) [Vanc-78]	3.13 µM (≈ 6.19 µg/mL)	32	> 250 µM	1	0.78 µM (≈ 1.54 µg/mL)	1	50 µM (≈ 98.9 µg/mL)	186 µM	57 ± 32 µM	> 250 µM	3.13 µM (≈ 6.19 µg/mL)	2	0.78 µM (≈ 1.54 µg/mL)	2	3.13 µM (≈ 6.19 µg/mL)	64	50 µM (≈ 98.9 µg/mL)	8	50 µM (≈ 98.9 µg/mL)	8	MIC (MRSA KS89): 0.78 µM (≈ 1.54 µg/mL); MIC-fold improvement vs. vancomycin (E. faecalis VRE 37): 8
CCCCCCCC[N+](C)(C)CCCNC(=O)c1ccc(NC(=O)CNC(=O)C2NC(=O)C3NC(=O)C(NC(=O)C4NC(=O)C(CC(N)=O)NC(=O)C(NC(=O)C(CC(C)C)NC)C(O)c5ccc(c(Cl)c5)Oc5cc4cc(c5OC4OC(CO)C(O)C(O)C4OC4CC(C)(N)C(O)C(C)O4)Oc4ccc(cc4Cl)C3O)c3ccc(O)c(c3)-c3c(O)cc(O)cc32)cc1 (stereo not shown) [Vanc-81]	0.78 µM	128	> 250 µM	4	0.39 µM	2	25 µM	179 µM	122 ± 13 µM	164 ± 6 µM	6.25 µM	1	0.78 µM	2	≤0.39 µM	>512	25 µM	16	25 µM	16	MIC (MRSA KS89): 0.20 µM; MIC-fold improvement vs. vancomycin (E. faecalis VRE 37): 16
